pIC50: −log10 of the molar value.
What was measured:
Assay in all cases: cells
HuCCT-1 = type: functional, cell-based, Homo sapiens, HuCCT1; details: Homo sapiens, HuCCT-1;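 further: growth inhibition of HuCCT-1 cells, read out by a cell viability assay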
Description: SANGER: Inhibition of human HuCCT1 cell growth in a cell viability assay.

NCI-H1755 = type: functional, cell-based, Homo sapiens; details: Homo sapiens, NCI-H1755;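 further: cell viability readout used to measure growth inhibition of NCI-H1755 cells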
Description: SANGER: Inhibition of human NCI-H1755 cell growth in a cell viability assay.

ABC-1 = type: functional, cell-based, Homo sapiens; details: Homo sapiens, ABC-1;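 further: growth inhibition of human ABC-1 cells, read out by a cell viability assay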
Description: SANGER: Inhibition of human ABC-1 cell growth in a cell viability assay.

CTB-1 = type: functional, cell-based; details: Homo sapiens
Description: SANGER: Inhibition of human CTB-1 cell growth in a cell viability assay.

PSN1 = type: functional, cell-based, Homo sapiens; details: Homo sapiens, PSN1;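 further: suppression of growth of human PSN1 cells, read out by a cell viability assay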
Description: SANGER: Inhibition of human PSN1 cell growth in a cell viability assay.

A498 = type: functional, cell-based, Homo sapiens; details: Homo sapiens, A498;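 further: growth inhibition of human A498 cells, read out with a cell viability assay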
Description: SANGER: Inhibition of human A498 cell growth in a cell viability assay.

COR-L88 = type: functional, cell-based; details: Homo sapiens;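 further: growth inhibition of COR-L88 cells, read out with a cell viability assay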
Description: SANGER: Inhibition of human COR-L88 cell growth in a cell viability assay.

CaR-1 = type: functional, cell-based, Homo sapiens; details: Homo sapiens, CaR-1;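 further: growth inhibition of human CaR-1 cancer cells, read out with a cell viability assay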
Description: SANGER: Inhibition of human CaR-1 cell growth in a cell viability assay.

SHP77 = type: functional, cell-based, Homo sapiens, SHP-77; details: Homo sapiens, SHP77;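 further: growth inhibition of human SHP-77 cells measured by a cell viability assay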
Description: SANGER: Inhibition of human SHP-77 cell growth in a cell viability assay.

KNS-81-FD = type: functional, cell-based, Homo sapiens; details: Homo sapiens, KNS-81-FD;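 further: growth inhibition of KNS-81-FD cells, read out with a cell viability assay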
Description: SANGER: Inhibition of human KNS-81-FD cell growth in a cell viability assay.

KYSE-140 = type: functional, cell-based, Homo sapiens; details: Homo sapiens, KYSE-140;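 further: cell viability assay measuring growth inhibition in human KYSE-140 cells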
Description: SANGER: Inhibition of human KYSE-140 cell growth in a cell viability assay.

WM-115 = type: functional, cell-based, Homo sapiens; details: Homo sapiens, WM-115
Description: SANGER: Inhibition of human WM-115 cell growth in a cell viability assay.

NB12 = type: functional, cell-based, Homo sapiens; details: Homo sapiens, NB12;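 further: growth inhibition of human NB12 cells, read out by a cell viability assay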
Description: SANGER: Inhibition of human NB12 cell growth in a cell viability assay.

CAL-33 = type: functional, cell-based, Homo sapiens; details: Homo sapiens, CAL-33;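 further: growth inhibition of CAL-33 cells, read out with a cell viability assay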
Description: SANGER: Inhibition of human CAL-33 cell growth in a cell viability assay.

MDA-MB-415 = type: functional, cell-based; details: Homo sapiens
NB17 = type: functional, cell-based; details: Homo sapiens;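 further: growth inhibition of NB17 cells, read out with a cell viability assay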
Description: SANGER: Inhibition of human NB17 cell growth in a cell viability assay.

NCI-H2342 = type: functional, cell-based; details: Homo sapiens;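 further: growth inhibition of the cancer cell line, determined with a cell viability assay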
Description: SANGER: Inhibition of human NCI-H2342 cell growth in a cell viability assay.

Huh-7 = type: functional, cell-based, Homo sapiens; details: Homo sapiens, Huh-7;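 further: HuH-7 cell growth inhibition, read out with a cell viability assay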
Description: SANGER: Inhibition of human HuH-7 cell growth in a cell viability assay.

HCC1806 = type: functional, cell-based, Homo sapiens; details: Homo sapiens, HCC1806;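 further: growth inhibition of the cancer cell line, determined with a cell viability assay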
Description: SANGER: Inhibition of human HCC1806 cell growth in a cell viability assay.

KGN = type: functional, cell-based, Homo sapiens; details: Homo sapiens, KGN;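 further: growth inhibition of KGN cells, read out with a cell viability assay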
Description: SANGER: Inhibition of human KGN cell growth in a cell viability assay.

A101D = type: functional, cell-based, Homo sapiens; details: Homo sapiens, A101D;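 further: growth inhibition of the cell line, measured with a viability assay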
Description: SANGER: Inhibition of human A101D cell growth in a cell viability assay.

HT-1376 = type: functional, cell-based, Homo sapiens; details: Homo sapiens, HT-1376
Description: SANGER: Inhibition of human HT-1376 cell growth in a cell viability assay.

KM12 = type: functional, cell-based, Homo sapiens; details: Homo sapiens, KM12;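 further: KM12 cell growth inhibition, read out with a cell viability assay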
Description: SANGER: Inhibition of human KM12 cell growth in a cell viability assay.

NCI-H650 = type: functional, cell-based, Homo sapiens; details: Homo sapiens, NCI-H650;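 further: growth inhibition of NCI-H650 cells, read out by a viability assay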
Description: SANGER: Inhibition of human NCI-H650 cell growth in a cell viability assay.

LU-99A = type: functional, cell-based, Homo sapiens; details: Homo sapiens, LU-99A;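 further: growth inhibition of LU-99A cells, read out with a cell viability assay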
Description: SANGER: Inhibition of human LU-99A cell growth in a cell viability assay.

MC116 = type: functional, cell-based; details: Homo sapiens;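 further: growth inhibition of MC116 cells, read out with a cell viability assay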
Description: SANGER: Inhibition of human MC116 cell growth in a cell viability assay.

OAW-42 = type: functional, cell-based, Homo sapiens; details: Homo sapiens, OAW-42;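 further: growth inhibition of OAW-42 cells, read out with a cell viability assay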
Description: SANGER: Inhibition of human OAW-42 cell growth in a cell viability assay.

NCI-H1693 = type: functional, cell-based, Homo sapiens; details: Homo sapiens, NCI-H1693;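 further: growth inhibition of the human cell line, read out with a cell viability assay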
Description: SANGER: Inhibition of human NCI-H1693 cell growth in a cell viability assay.

SBC-5 = type: functional, cell-based, Homo sapiens; details: Homo sapiens, SBC-5;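 further: cell viability assay read-out, IC50 is the concentration that inhibits growth of the cells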
Description: SANGER: Inhibition of human SBC-5 cell growth in a cell viability assay.

NCI-H23 = type: functional, cell-based, Homo sapiens; details: Homo sapiens, NCI-H23
Description: SANGER: Inhibition of human NCI-H23 cell growth in a cell viability assay.

KE-37 = type: functional, cell-based; details: Homo sapiens;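 further: growth inhibition of KE-37 cells, read out with a cell viability assay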
Description: SANGER: Inhibition of human KE-37 cell growth in a cell viability assay.

HCC 2998 = type: functional, cell-based, Homo sapiens; details: Homo sapiens, HCC 2998;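 further: growth inhibition of human HCC2998 cells, measured with a cell viability read-out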
Description: SANGER: Inhibition of human HCC2998 cell growth in a cell viability assay.

COLO-668 = type: functional, cell-based, Homo sapiens; details: Homo sapiens, COLO-668
Description: SANGER: Inhibition of human COLO-668 cell growth in a cell viability assay.

ChaGo-K-1 = type: functional, cell-based; details: Homo sapiens;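 further: growth inhibition of ChaGo-K-1 cells, read out with a cell viability assay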
Description: SANGER: Inhibition of human ChaGo-K-1 cell growth in a cell viability assay.

NB69 = type: functional, cell-based, Homo sapiens; details: Homo sapiens, NB69;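 further: growth inhibition of NB69 cells, determined by a cell viability assay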
Description: SANGER: Inhibition of human NB69 cell growth in a cell viability assay.

C8166 = type: functional, cell-based; details: Homo sapiens;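 further: growth inhibition of human C8166 cells measured by a cell viability assay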
Description: SANGER: Inhibition of human C8166 cell growth in a cell viability assay.

A673 = type: functional, cell-based, Homo sapiens; details: Homo sapiens, A673;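 further: growth inhibition of human A673 cells, read out through a cell viability assay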
Description: SANGER: Inhibition of human A673 cell growth in a cell viability assay.

OAW-28 = type: functional, cell-based, Homo sapiens; details: Homo sapiens, OAW-28;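 further: growth inhibition of OAW-28 cells, read out with a cell viability assay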
Description: SANGER: Inhibition of human OAW-28 cell growth in a cell viability assay.

SJSA-1 = type: functional, cell-based, Homo sapiens; details: Homo sapiens, SJSA-1;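 further: growth inhibition of human SJSA-1 cells, read out through a cell viability measurement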
Description: SANGER: Inhibition of human SJSA-1 cell growth in a cell viability assay.

EGI-1 = type: functional, cell-based, Homo sapiens; details: Homo sapiens, EGI-1;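 further: cell viability readout used to gauge growth inhibition of EGI-1 cells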
Description: SANGER: Inhibition of human EGI-1 cell growth in a cell viability assay.

SCC-15 = type: functional, cell-based, Homo sapiens; details: Homo sapiens, SCC-15;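 further: growth inhibition of SCC-15 cells, read out with a cell viability assay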
Description: SANGER: Inhibition of human SCC-15 cell growth in a cell viability assay.

NCI-H1563 = type: functional, cell-based, Homo sapiens; details: Homo sapiens, NCI-H1563;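 further: growth inhibition of human NCI-H1563 cells, read out with a cell viability assay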
Description: SANGER: Inhibition of human NCI-H1563 cell growth in a cell viability assay.

HT1197 = type: functional, cell-based, Homo sapiens, HT-1197; details: Homo sapiens, HT1197
Description: SANGER: Inhibition of human HT-1197 cell growth in a cell viability assay.

CAL-72 = type: functional, cell-based, Homo sapiens; details: Homo sapiens, CAL-72;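 further: cell viability assay measuring inhibition of proliferation in the CAL-72 cell line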
Description: SANGER: Inhibition of human CAL-72 cell growth in a cell viability assay.

G-401 = type: functional, cell-based, Homo sapiens; details: Homo sapiens, G-401
Description: SANGER: Inhibition of human G-401 cell growth in a cell viability assay.

NCI-H1993 = type: functional, cell-based, Homo sapiens; details: Homo sapiens, NCI-H1993;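 further: growth inhibition of the cancer cell line, assessed with a cell viability assay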
Description: SANGER: Inhibition of human NCI-H1993 cell growth in a cell viability assay.

BV-173 = type: functional, cell-based; details: Homo sapiens
Description: SANGER: Inhibition of human BV-173 cell growth in a cell viability assay.

CTV-1 = type: functional, cell-based; details: Homo sapiens;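 further: growth inhibition of the cell line, read out with a cell viability assay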
Description: SANGER: Inhibition of human CTV-1 cell growth in a cell viability assay.

8505C = type: functional, cell-based, Homo sapiens; details: Homo sapiens, 8505C
Description: SANGER: Inhibition of human 8505C cell growth in a cell viability assay.

LCLC-103H cell line = type: functional, cell-based, Homo sapiens; details: Homo sapiens, LCLC-103H
Description: SANGER: Inhibition of human LCLC-103H cell growth in a cell viability assay.

A 172 = type: functional, cell-based, Homo sapiens; details: Homo sapiens, A 172;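 further: growth inhibition of A172 cells, measured with a cell viability readout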
Description: SANGER: Inhibition of human A172 cell growth in a cell viability assay.

COc1ccc(-c2ccc3c(N4CCOC[C@@H]4C)nc(N4CCOC[C@@H]4C)nc3n2)cc1CO [AZD-8055]
pIC50 (HuCCT-1): < 5.70
pIC50 (NCI-H1755): 5.94
pIC50 (ABC-1): < 5.70
pIC50 (CTB-1): 6.57
pIC50 (PSN1): 6.11
pIC50 (A498): < 5.70
pIC50 (COR-L88): 6.37
pIC50 (CaR-1): 5.76
pIC50 (SHP77): < 5.70
pIC50 (KNS-81-FD): 5.72
pIC50 (KYSE-140): 6.11
pIC50 (WM-115): 6.16
pIC50 (NB12): < 5.70
pIC50 (CAL-33): 6.06
pIC50 (MDA-MB-415): 5.91
pIC50 (NB17): < 5.70
pIC50 (NCI-H2342): < 5.70
pIC50 (Huh-7): 6.36
pIC50 (HCC1806): 6.03
pIC50 (KGN): 6.21
pIC50 (A101D): 6.31
pIC50 (HT-1376): < 5.70
pIC50 (KM12): 5.75
pIC50 (NCI-H650): 6.10
pIC50 (LU-99A): 6.11
pIC50 (MC116): < 5.70
pIC50 (OAW-42): 6.23
pIC50 (NCI-H1693): 5.70
pIC50 (SBC-5): 5.81
pIC50 (NCI-H23): 5.81
pIC50 (KE-37): 6.36
pIC50 (HCC 2998): 5.71
pIC50 (COLO-668): < 5.70
pIC50 (ChaGo-K-1): < 5.70
pIC50 (NB69): 6.87
pIC50 (C8166): < 5.70
pIC50 (A673): < 5.70
pIC50 (OAW-28): < 5.70
pIC50 (SJSA-1): 6.35
pIC50 (EGI-1): 6.87
pIC50 (SCC-15): 5.93
pIC50 (NCI-H1563): 6.10
pIC50 (HT1197): < 5.70
pIC50 (CAL-72): < 5.70
pIC50 (G-401): 6.51
pIC50 (NCI-H1993): < 5.70
pIC50 (BV-173): 7.04
pIC50 (CTV-1): 7.06
pIC50 (8505C): 5.89
pIC50 (LCLC-103H cell line): < 5.70

Cn1cc(C2=C(c3ccc(Cl)cc3Cl)C(=O)NC2=O)c2ccccc21 [SB-216763]
pIC50 (HuCCT-1): < 5.00
pIC50 (A 172): < 5.00
pIC50 (NCI-H1755): < 5.00
pIC50 (ABC-1): < 5.00
pIC50 (CTB-1): < 5.00
pIC50 (PSN1): < 5.00
pIC50 (A498): < 5.00
pIC50 (CaR-1): < 5.00
pIC50 (SHP77): < 5.00
pIC50 (KNS-81-FD): < 5.00
pIC50 (KYSE-140): < 5.00
pIC50 (WM-115): < 5.00
pIC50 (NB12): < 5.00
pIC50 (CAL-33): < 5.00
pIC50 (NB17): < 5.00
pIC50 (NCI-H2342): < 5.00
pIC50 (Huh-7): < 5.00
pIC50 (HCC1806): < 5.00
pIC50 (KGN): < 5.00
pIC50 (A101D): < 5.00
pIC50 (HT-1376): < 5.00
pIC50 (KM12): < 5.00
pIC50 (NCI-H650): < 5.00
pIC50 (LU-99A): < 5.00
pIC50 (MC116): < 5.00
pIC50 (OAW-42): < 5.00
pIC50 (NCI-H1693): < 5.00
pIC50 (SBC-5): < 5.00
pIC50 (NCI-H23): < 5.00
pIC50 (KE-37): < 5.00
pIC50 (HCC 2998): < 5.00
pIC50 (COLO-668): < 5.00
pIC50 (ChaGo-K-1): < 5.00
pIC50 (NB69): < 5.00
pIC50 (C8166): < 5.00
pIC50 (A673): < 5.00
pIC50 (OAW-28): < 5.00
pIC50 (SJSA-1): < 5.00
pIC50 (EGI-1): < 5.00
pIC50 (SCC-15): < 5.00
pIC50 (NCI-H1563): < 5.00
pIC50 (HT1197): < 5.00
pIC50 (CAL-72): < 5.00
pIC50 (G-401): < 5.00
pIC50 (NCI-H1993): 5.08
pIC50 (BV-173): < 5.00
pIC50 (CTV-1): < 5.00
pIC50 (8505C): < 5.00
pIC50 (LCLC-103H cell line): < 5.00

Reference: ChEMBL document CHEMBL1201861, “Genomics of Drug Sensitity in Cancer screening data, Wellcome Trust Sanger Institute”
